The text below walks through data of ChEMBL document CHEMBL5137114, “Discovery of IHMT-MST1-58 as a Novel, Potent, and Selective MST1 Inhibitor for the Treatment of Type 1/2 Diabetes” (J Med Chem, 2022).

SMILES strings stand for the structures. Activity calls are given as the source filed them. The rule behind the calls is not given here.

For data set [1], the target named is T1, Serine/threonine-protein kinase Nek3 (Homo sapiens, UniProt P51956).
T1 sequence (P51956 whole entry): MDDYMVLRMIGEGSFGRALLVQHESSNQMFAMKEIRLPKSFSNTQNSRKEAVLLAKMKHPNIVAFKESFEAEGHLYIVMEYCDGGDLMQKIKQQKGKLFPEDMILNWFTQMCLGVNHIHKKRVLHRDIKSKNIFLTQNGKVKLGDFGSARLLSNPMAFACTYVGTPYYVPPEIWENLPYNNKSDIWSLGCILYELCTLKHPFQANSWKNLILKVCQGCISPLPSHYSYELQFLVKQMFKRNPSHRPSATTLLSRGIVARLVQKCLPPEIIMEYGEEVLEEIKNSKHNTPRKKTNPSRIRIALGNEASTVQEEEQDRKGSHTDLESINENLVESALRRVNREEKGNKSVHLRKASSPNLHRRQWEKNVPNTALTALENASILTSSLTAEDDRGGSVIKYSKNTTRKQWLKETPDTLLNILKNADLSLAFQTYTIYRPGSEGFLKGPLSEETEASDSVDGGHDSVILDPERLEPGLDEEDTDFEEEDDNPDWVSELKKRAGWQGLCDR
As to the kind of experiment: Inhibition of recombinant full length N-terminal GST -tagged human NEK3 expressed in baculovirus expression system using S2 as substrate incubated for 2 hrs by HTRF assay. (Time-resolved FRET reads energy transfer from a long-lived donor to a nearby acceptor.)

Data set [2] is described as follows: Oral bioavailability in Sprague-Dawley rat at 10 mg/kg measured up to 24 hrs by LC-MS/MS analysis. The data set is classed as ADME, organism-based. As to conditions: in vivo.
The subject of data set [3] is Serine/threonine-protein kinase 4 (Rattus norvegicus). As to the kind of experiment: Inhibition of INF-gamma-stimulated MST1 in rat RIN-m5F cells assessed as reduction in MOB1 autophosphorylation incubated for 12 hrs by Western blotting analysis. Conditions: dose 0.1-10 µM, DDE = dose-dependent effect. For orientation: A western blot detects proteins with antibodies after separation by electrophoresis.

A short description of data set [4]: Toxicity in high fat diet-STZ-induced C57BL/6J mouse model of type 2 diabetes assessed as effect on pancreas morphology at 250 mg/kg, po qd in presence of metformin by H and E staining based analysis. The data set is classed as organism-based. Conditions: in vivo.
In data set [5] the target is T2, Serine/threonine-protein kinase Nek3 (Homo sapiens) (UniProt P51956).
T2 sequence (whole entry): T1 sequence (P51956 whole entry)
Put plainly: Binding affinity to wild-type human full length NEK3 (M1 to R506 residues) expressed in mammalian expression system at 1 uM by Kinomescan method.

For data set [6], the system named is Serine/threonine-protein kinase 4 (Rattus norvegicus). As to the kind of experiment: Inhibition of TNF-alpha-stimulated MST1 phosphorylation in rat INS1 cells incubated for 12 hrs by Western blotting analysis. As to conditions: dose 0.1-10 µM, DDE = dose-dependent effect.
The target in data set [7] is T3, Serine/threonine-protein kinase 4 (Homo sapiens, UniProt Q13043).
T3 sequence (Q13043 whole entry): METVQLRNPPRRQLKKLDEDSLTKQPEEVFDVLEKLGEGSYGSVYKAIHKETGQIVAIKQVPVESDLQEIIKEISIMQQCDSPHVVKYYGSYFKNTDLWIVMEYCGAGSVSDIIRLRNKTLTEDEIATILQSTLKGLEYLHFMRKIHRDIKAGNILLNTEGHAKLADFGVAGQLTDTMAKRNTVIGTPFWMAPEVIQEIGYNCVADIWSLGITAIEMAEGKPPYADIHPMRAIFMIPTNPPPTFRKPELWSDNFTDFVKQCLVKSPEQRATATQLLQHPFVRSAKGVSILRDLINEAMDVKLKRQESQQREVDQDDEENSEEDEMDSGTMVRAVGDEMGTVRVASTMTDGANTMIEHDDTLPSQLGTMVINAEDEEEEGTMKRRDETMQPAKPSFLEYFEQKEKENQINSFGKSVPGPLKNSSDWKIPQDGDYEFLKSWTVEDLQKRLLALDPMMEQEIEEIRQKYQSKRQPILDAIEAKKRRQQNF
Put plainly: Inhibition of recombinant full length N-terminal GST -tagged human MST1 expressed in baculovirus infected Sf9 insect cells using KKSRGDYMTMQIG as substrate incubated for 1 hr in presence of ATP by ADP-Glo luminescent assay.

Data set [8] is described as follows: AUC (0 to t) in Beagle dog at 10 mg/kg, po measured up to 24 hrs by LC-MS/MS analysis. More on the design: dose 10 mg/kg, time < 24 hrs, route po. Conditions: in vivo. Type of data set: ADME, organism-based, Canis lupus familiaris.
Data set [9] has as its system RIN-m5F. As to the kind of experiment: Protection against IFN-gamma-induced cell damage in rat RIN-m5F cells assessed as increase in cell survival at 0.03 to 0.3 uM incubated for 48 hrs by Cell Titer-Glo assay. The data set is classed as functional, cell-based. Conditions: dose 0.03-0.3 µM. (In general: Cellular ATP, detected with luciferase, serves as a proxy for viable cell number.)

Data set [10] relates to Mus musculus. Put plainly: Antidiabetic activity against multi low dose STZ-induced C57BL/6J mouse model of type 1 diabetes assessed as food intake at 50 mg/kg, po administered for 1 to 2 days in presence of metformin (reference value: 4.5 g/day). Type of data set: functional. Conditions: time 1-2 day.
A short description of data set [11]: AUC (0 to t) in Sprague-Dawley rat at 10 mg/kg, po measured up to 24 hrs by LC-MS/MS analysis. The data set is classed as ADME, organism-based. More on the design: time < 24 hrs, dose 10 mg/kg, route po. Conditions: in vivo.
Data set [12] deals with RIN-m5F. Put plainly: Protection against IL-1beta-induced cell damage in rat RIN-m5F cells assessed as increase in cell survival at 0.03 to 0.3 uM incubated for 48 hrs by Cell Titer-Glo assay. Conditions: dose 0.03-0.3 µM. Type of data set: functional, cell-based.
Data set [13] concerns Mus musculus. Put plainly: Antidiabetic activity against multi low dose STZ-induced C57BL/6J mouse model of type 1 diabetes assessed as food intake at 50 mg/kg, po administered for 78 to 79 days (reference value: 4.7 g/day). The data set is classed as functional. As to conditions: time 78-79 day.
In data set [14] the test system is Mus musculus. Put plainly: Antidiabetic activity in multi low dose STZ-induced C57BL/6J mouse model of type 1 diabetes assessed as reduction in HbA1c level at 50 mg/kg, po qd administered in presence of metformin (reference value: 7.6 %). Type of data set: functional. More on the design: scale not given: the % may be the effect or the level left.
Data set [15] is described as follows: Cmax in mouse at 10 mg/kg, po measured up to 24 hrs by LC-MS/MS analysis. Type of data set: ADME, organism-based. On the set-up: dose 10 mg/kg, time < 24 hrs, route po. As to conditions: in vivo.
The nature of data set [16]: AUC (0 to t) in Beagle dog at 1 mg/kg, iv measured up to 12 hrs by LC-MS/MS analysis. The data set is classed as ADME, organism-based, Canis lupus familiaris. Conditions: in vivo. More on the design: time < 12 hrs, dose 1 mg/kg, route iv.
Data set [17] has as its target T3, Serine/threonine-protein kinase 4. Put plainly: Binding affinity to wild-type human full length MST1 (M1 to F487 residues) expressed in bacterial expression system by Kinomescan method.
Data set [18] is described as follows: Half life in mouse at 10 mg/kg, po measured up to 24 hrs by LC-MS/MS analysis. Type of data set: ADME, organism-based. As to conditions: in vivo.
A short description of data set [19]: Half life in Beagle dog at 1 mg/kg, iv measured up to 12 hrs by LC-MS/MS analysis. The data set is classed as ADME, organism-based, Canis lupus familiaris. As to conditions: in vivo.
For data set [20], the system named is Serine/threonine-protein kinase 4 (Rattus norvegicus). As to the kind of experiment: Inhibition of IL-1beta[…]-stimulated MST1 in rat RIN-m5F cells assessed as reduction in MOB1 autophosphorylation incubated for 12 hrs by Western blotting analysis. Conditions: dose 0.1-10 µM, DDE = dose-dependent effect.
A short description of data set [21]: Cmax in Beagle dog at 1 mg/kg, iv measured up to 12 hrs by LC-MS/MS analysis. Type of data set: ADME, organism-based, Canis lupus familiaris. On the set-up: dose 1 mg/kg, time < 12 hrs, route iv. Conditions: in vivo.
Data set [22] is described as follows: Cmax in mouse plasma at 50 mg/kg, po measured up to 24 hrs by LC-MS/MS analysis. More on the design: dose 50 mg/kg, time < 24 hrs, route po. The data set is classed as ADME, organism-based.
In data set [23] the test system is Mus musculus. As to the kind of experiment: Antidiabetic activity against 8 hrs fasted multi low dose STZ-induced C57BL/6J mouse model of type 1 diabetes assessed as decrease in fasting blood glucose level at 50 mg/kg, po administered for 77 days in presence of metformin (reference value: 22.3 mmol/L). The data set is classed as functional. Conditions: time 77 day.

With `Cc1ccccc1C1C(=O)N(C)c2cnc(Nc3ccc(S(N)(=O)=O)cc3)nc2N1C` (stereo not drawn), the figures for the IC50 in data set [1] and in data set [7] were above 10 µM and 23 nM, respectively. The F in data set [2] stood at 73.3%. Besides, the inhibition result in data set [3], in data set [6] and in data set [20] was “Dde” throughout. Further, the Activity entry in [4] was “Non-Toxic”; with Mus musculus [10], 5.4 g/day; in the data set with Mus musculus [13], 4 g/day; with Mus musculus [14], 6.1%; in the data set on Mus musculus [23] it was 8.9 mmol/L. The result (in data set [5]; with RIN-m5F [9]; in the data set with RIN-m5F [12]) was Active. In data set [8], the AUC(0-t) (in general, the area under the concentration-time curve up to a stated or last time point) at 24 h was 4940 ng·h/mL. For the same compound, the AUCt in data set [11] was determined as 4858 ng·h/mL. The Cmax (in general, the highest concentration seen after dosing) in [15] turned out to be 1920 ng/mL; in data set [21], 467 ng/mL; in data set [22] it was 3990 ng/mL. In addition, in [16], the AUC(0-t) at 12 h came out at 764 ng·h/mL. For the same compound, the affinity in [17], expressed as Kd, was 240 nM. Moreover, the half-life (commonly how long it takes for the measured level to halve) in data set [18] is 109 min; in data set [19], 388 min.
